Test results from patent US8987217B2, “Modified saponins for the treatment of fungal infections” (The General Hospital Corporation, priority 2010, dated 2015).
≈ marks a conversion by molar mass, not a printed value. Entries after “also recorded” stand apart in the source; their conditions may differ. Read-outs that look alike come from different tables or passages of the source.

Legend:
[1] = system: C. albicans strain DAY185; experiment: in vitro antifungal activity (MIC) in the co-inoculation assay, turbidity read visually; assay type: cell-based; conditions: for MIC in vitro: co-inoculation assay, two-fold serial dilutions, C. albicans DAY185; for in vitro growth of C. albicans: screen / dose response
Description: (§1) The procedure for the co-inoculation antifungal compound screen were conducted as previously described (Okoli et al., PLoS ONE, 4:e7025 (2009); Tampakakis et al., Nat Protocols, 3:1925-1931 (2008)), using the C. albicans strain DAY185 (Davis et al., Infect Immun, 68:5953-5959 (2000)) and the C. elegans glp-4;sek-1 double mutant.
The determination of the lowest concentration of the selected compounds showing in vitro antifungal activity was accomplished by following the steps detailed in the co-inoculation assay, using two-fold serial dilutions of the test compounds.

[2] = system: C. albicans; experiment: C. elegans-C. albicans co-inoculation assay, nematode survival; assay type: in vivo; conditions: for EC50 in vivo: dose that resulted in 50% survival of C. albicans-infected nematodes; for maximum nematode survival / promoting C. elegans survival compared with amphotericin B: dose response; for maximum nematode survival: C. albicans-infected C. elegans; for promoting C. elegans survival compared with amphotericin B: FIG. 2A
Description: as §1
(§2) This assay allows simultaneous assessment of a compound's potential toxicity and the ability to promote the survival of the nematode in the presence of C. albicans, including modes of action not traditionally considered in antifungal assays such as impeding a fungal virulence factor or promoting host immune response. We performed a screen of 2,560 natural products representing a fraction of the Analyiticon Discovery compound collection (ac-discovery.com) housed at the Broad Institute of Harvard and MIT (Cambridge, Mass.). […] These natural products identified in the primary screen were retested and confirmed (FIG. 1; Table 1). […] Moreover, although the antifungal effects of some of these saponins have been reported (Sata et al., Biosci Biotechnol Biochem, 62:1904-1911 (1998); Ohtani et al., Phytochem, 33:83-86 (1993)), their efficacy against Candida spp. has not been studied.
After confirmation of these hits, dose response experiments were conducted to determine the concentration that provided maximum nematode survival. The compounds conferred a range of nematode survival from 27% (compound A6) to 93% (compounds A2, A7, A24, and A25), however, with the exception of A6, all compounds conferred a nematode survival over 65% (FIG. 1).

[3] = system: C. elegans; experiment: toxicity to the nematode in dose response experiments; conditions: for toxicity to the nematode: dose response experiments, higher concentrations
Description: as §2
Representatives of the saponins family are able to disrupt cellular membranes and the lytic activity on erythrocytes has been used as an assay for some saponins Francis et al., British Journal of Nutrition, 88:587-605 (2002)). This property is derived from the affinity of some saponins for binding cholesterol forming insoluble pores composed of the sterol and saponins (Bangham et al., Nature, 196:952-953(1962); Glauert et al., Nature, 196:953-955 (1962)). […] The dose-response experiments previously used to determine the EC50 and approximate the MIC can also indicate if the saponins maybe toxic to C. elegans and potentially to mammalian cells.

[4] = system: C. albicans strains; experiment: MIC by standard CLSI microdilution protocol M27-A; assay type: cell-based
Description: Using the standard Clinical and Laboratory Standards Institute (CLSI) procedure, the in vitro MIC of these two compounds was determined on the following C. albicans strains: DAY185 (the standard strain used throughout the screen), two fluconazole-resistant strains of C. albicans, and an echinocandin-resistant strain of C. albicans (Table 2).
The minimal inhibitory concentration (MIC) was determined for strains DAY185, 98-145, 95-120 (White et al., Antimicrob Agents Chemother, 46:1704-1713 (2002)), and A15-10 (Garcia-Effron et al., Antimicrob Agents Chemother, 53:112-122 (2009)) spectrophotometrically using RPMI 1640 media (Mediatech, Inc.) following the standard CLSI microdilution protocol M27-A (National Committee for Clinical Laboratory Standards, Reference method for broth dilution susceptibility testing of yeasts. Tentative standard M27-A, Villanova, Pa. (1995)). Biofilm assays using identified compounds were conducted as previously described (Richard et al., Eukaryot Cell, 4:1493-1502 (2005)). The biofilm dry mass was determined by drying the silicone squares in a chemical hood, and weighing the resulting biofilm mass subtracting the previously weighed mass of the silicone square. Biofilm pictures were captured using a confocal laser microscope (TCS NT, Leica Microsystems). Cells were grown at 30° C., exposed to PS for 30 min, and then washed with PBS.

[5] = system: C. albicans isolates; experiment: interaction between A16 and fluconazole (MIC); assay type: cell-based
Description: Since compound A16 was able to facilitate uptake of PS compounds, we investigated their ability to increase uptake to the commonly used antifungal agent fluconazole. As indicated above, fluconazole and saponins have different target sites, although they both function by altering the fungal cell membrane. […] One of the molecular mechanisms responsible for increased resistance to fluconazole for isolate 98-145 is a homozygous V437I point mutation in the ERG11 gene (White et al., Antimicrob Agents Chemother, 46:1704-1713 (2002)).

[6] = system: C. albicans DAY185; conditions: at the concentrations used, yeast cells; cited from earlier work

Structure (SMILES): CC1CC[C@@]2(OC1)O[C@H]1CC3C4CC=C5C[C@@H](O[C@@H]6O[C@H](CO)[C@@H](O[C@@H]7O[C@@H](C)[C@H](O)[C@@H](O)[C@H]7O)[C@H](O)[C@H]6O[C@@H]6O[C@@H](C)[C@H](O)[C@@H](O)[C@H]6O)CC[C@]5(C)C4CC[C@]3(C)[C@H]1[C@@H]2C (some centres unmarked) [A11]
- MIC in vitro [1]: 38.9 µg/mL (≈ 44.8 µM)
- EC50 in vivo [2]: 38.9 µg/mL (≈ 44.8 µM)

Structure (SMILES): C/C=C(/C)C(=O)O[C@H]1CC(C)(C)C[C@H]2C3=CCC4[C@@]5(C)CC[C@H](O[C@@H]6O[C@H](C(=O)O)[C@@H](O[C@@H]7O[C@H](CO)[C@H](O)[C@H](O)[C@H]7O[C@@H]7O[C@H](CO)[C@@H](O)[C@H](O)[C@H]7O)[C@H](O)[C@H]6OC6O[C@@H](C)[C@H](O)[C@@H](O)[C@H]6O)C(C)(C)C5CC[C@@]4(C)[C@]3(C)[C@@H](OC(C)=O)[C@@H](O)[C@@]12COC(C)=O (some centres unmarked) [A25]
- MIC in vitro [1]: 28.7 µg/mL (≈ 22 µM)
- in vitro growth of C. albicans [1]: completely inhibited
- maximum nematode survival [2]: 93%
- EC50 in vivo [2]: 28.7 µg/mL (≈ 22 µM)

Structure (SMILES): C[C@@H]1O[C@@H](O[C@H]2[C@H](O[C@H]3[C@H](O[C@H]4[C@H](O)[C@@H](O[C@@H]5O[C@H](CO)[C@@H](O)[C@H](O)[C@H]5O)[C@H](O[C@H]5CC[C@@]6(C)C(CC[C@]7(C)C6CC[C@]68OCC9(CCC(C)(C)CC96)[C@H](O)C[C@]87C)C5(C)C)O[C@@H]4C(=O)O)O[C@H](CO)[C@H](O)[C@@H]3O)O[C@@H](C)[C@H](O)[C@H]2O)[C@H](O)[C@H](O)[C@H]1O (some centres unmarked) [A2, Sakurasosaponin]
- MIC in vitro [1]: 27.5 µg/mL (≈ 22 µM)
- in vitro growth of C. albicans [1]: completely inhibited
- maximum nematode survival [2]: 93%
- EC50 in vivo [2]: 55.1 µg/mL (≈ 44 µM)

Structure (SMILES): CC1CC[C@@]2(OC1)O[C@H]1CC3C4CC=C5C[C@@H](O[C@@H]6O[C@H](CO)[C@@H](O[C@@H]7O[C@@H](C)[C@H](O)[C@@H](O)[C@H]7O[C@@H]7O[C@@H](C)[C@H](O)[C@@H](O)[C@H]7O)[C@H](O)[C@H]6O)CC[C@]5(C)C4CC[C@]3(C)[C@H]1[C@@H]2C (some centres unmarked) [A20]
- MIC in vitro [1]: 4.8 µg/mL (≈ 5.52 µM)
- promoting C. elegans survival compared with amphotericin B [2]: as effective as amphotericin B
- EC50 in vivo [2]: 4.8 µg/mL (≈ 5.52 µM)

Structure (SMILES): CC1CC[C@@]2(OC1)O[C@H]1CC3C4C[C@@H](O)C5C[C@@H](O[C@@H]6O[C@H](CO)[C@H](O[C@@H]7O[C@H](CO)[C@@H](O)[C@H](O[C@@H]8OC[C@@H](O[C@@H]9O[C@H](CO)[C@@H](O)[C@H](O)[C@H]9O)[C@H](O)[C@H]8O)[C@H]7O[C@@H]7O[C@H](CO)[C@@H](O)[C@H](O)[C@H]7O)[C@H](O)[C@H]6O)CC[C@]5(C)C4CC[C@]3(C)[C@H]1[C@@H]2C (some centres unmarked) [A24]
- MIC in vitro [1]: 13.3 µg/mL (≈ 11 µM)
- maximum nematode survival [2]: 93%
- EC50 in vivo [2]: 13.3 µg/mL (≈ 11 µM)
- toxicity to the nematode [3]: decrease in nematode survival
- concentrations showing evidence of toxicity to the worms ([3]; in vivo): > 27000 ng/mL

Structure (SMILES): CC1CC[C@@]2(OC1)O[C@H]1CC3C4C[C@@H](O)C5C[C@@H](O[C@@H]6O[C@H](CO)[C@H](O[C@@H]7O[C@H](CO)[C@@H](O)[C@H](O[C@@H]8OC[C@@H](O)[C@H](O)[C@H]8O)[C@H]7O[C@@H]7O[C@H](CO)[C@@H](O)[C@H](O)[C@H]7O)[C@H](O)[C@H]6O)CC[C@]5(C)C4CC[C@]3(C)[C@H]1[C@@H]2C (some centres unmarked) [A8]
- MIC in vitro [1]: 5.8 µg/mL (≈ 5.52 µM)
- EC50 in vivo [2]: 23.1 µg/mL (≈ 22 µM)

Structure (SMILES): CC[C@H](C)C[C@H](C)CCCCCCCCC(=O)N[C@H]1C[C@@H](O)[C@@H](NCCN)NC(=O)[C@@H]2[C@@H](O)CCN2C(=O)[C@H]([C@H](O)CCN)NC(=O)[C@H]([C@H](O)[C@@H](O)c2ccc(O)cc2)NC(=O)[C@@H]2C[C@@H](O)CN2C(=O)[C@H]([C@@H](C)O)NC1=O [Caspofungin]
- MIC ([4]; Candida albicans, C. albicans DAY185): 2 µg/mL (≈ 1.83 µM)
- MIC ([4]; Candida albicans, echinocandin-resistant strain A15): 8 µg/mL (≈ 7.32 µM)
- MIC ([4]; Candida albicans, fluconazole-resistant strain 95-120): 1 µg/mL (≈ 0.915 µM)
- MIC ([4]; Candida albicans, fluconazole-resistant strain 98-145): 1 µg/mL (≈ 0.915 µM)

Structure (SMILES): OC(Cn1cncn1)(Cn1cncn1)c1ccc(F)cc1F [Fluconazole]
- MIC ([4]; Candida albicans, C. albicans DAY185, read-out: MIC): 2 µg/mL (≈ 6.53 µM)
- MIC ([4]; Candida albicans, echinocandin-resistant strain A15, read-out: MIC): 2 µg/mL (≈ 6.53 µM)
- MIC ([4]; Candida albicans, fluconazole-resistant strain 95-120, read-out: MIC): 32 µg/mL (≈ 104 µM)
- MIC ([4]; Candida albicans, fluconazole-resistant strain 98-145, read-out: MIC): > 128 µg/mL
- MIC ([5]; Candida albicans, C. albicans isolate DAY185, read-out: MIC of fluconazole alone): 2 µg/mL
- MIC of fluconazole in combination with A16 ([5]; DAY185, subinhibitory A16 (4 μg/mL)): 1 µg/mL
- sensitivity to fluconazole treatment in the presence of A16 ([5]; two C. albicans isolates with increased resistance to fluconazole): no increase in sensitivity

Structure (SMILES): O=C1OC2(c3cc(I)c(O)c(I)c3Oc3c2cc(I)c(O)c3I)c2c(Cl)c(Cl)c(Cl)c(Cl)c21 [RB, Rose Bengal]
- PDI effect of photosensitizer alone [6]: no statistically significant PDI effect

Structure (SMILES): C=Cc1c(C)c2cc3nc(c(CC(=O)O)c4[nH]c(cc5nc(cc1[nH]2)C(C)=C5CC)c(C)c4C(=O)O)[C@@H](CCC(=O)O)[C@@H]3C [ce6, chlorin(e6)]
- PDI effect of photosensitizer alone [6]: no statistically significant PDI effect

Structure (SMILES): CC1(C)CC[C@]2(C(=O)O)CC[C@]3(C)C(=CCC4[C@@]5(C)CC[C@H](OC6O[C@H](CO)[C@@H](O)[C@H](O[C@@H]7O[C@H](CO)[C@@H](O)[C@H](O)[C@H]7O)[C@H]6O)C(C)(C)C5CC[C@]43C)[C@@H]2C1 (some centres unmarked) [A6, Arvensoside B]
- maximum nematode survival [2]: 27%

Structure (SMILES): C[C@@H]1[C@H](O)[C@@H](C)/C=C/C=C/C=C/C=C/C=C/C=C/C=C/[C@H](O[C@@H]2O[C@H](C)[C@@H](O)[C@H](N)[C@@H]2O)C[C@@H]2O[C@](O)(C[C@@H](O)C[C@@H](O)[C@H](O)CC[C@@H](O)C[C@@H](O)CC(=O)O[C@H]1C)C[C@H](O)[C@H]2C(=O)O [Amphotericin B]
- MIC in vitro [1]: 1.0 µg/mL (≈ 1.08 µM)
- maximum nematode survival [2]: 93%
- EC50 in vivo [2]: 2.0 µg/mL (≈ 2.16 µM)
- MIC ([4]; C. albicans DAY185): 2 µg/mL (≈ 2.16 µM)
- MIC ([4]; echinocandin-resistant strain A15): 2 µg/mL (≈ 2.16 µM)
- MIC ([4]; fluconazole-resistant strain 95-120): 2 µg/mL (≈ 2.16 µM)
- MIC ([4]; fluconazole-resistant strain 98-145): 2 µg/mL (≈ 2.16 µM)

Structure (SMILES): C/C=C(/C)C(=O)O[C@H]1[C@H](OC(=O)/C(C)=C\C)[C@]2(CO)[C@H](O)C[C@]3(C)C(=CCC4[C@@]5(C)CC[C@H](OC6OC(C(=O)O)C(O)C(OC7OC(C)C(O)C(OC8OC(CO)C(O)C(O)C8O)C7O)C6O)C(C)(C)C5CC[C@]43C)[C@@H]2CC1(C)C (some centres unmarked) [A7]
- MIC in vitro [1]: 3.1 µg/mL (≈ 2.72 µM)
- in vitro growth of C. albicans [1]: completely inhibited
- maximum nematode survival [2]: 93%
- promoting C. elegans survival compared with amphotericin B [2]: as effective as amphotericin B
- EC50 in vivo [2]: 3.1 µg/mL (≈ 2.72 µM)
- toxicity to the nematode [3]: decrease in nematode survival; also recorded: maybe toxic to the nematode
